# Tests used:
# [1] = biological target: 5-hydroxytryptamine receptor 2A (Rattus norvegicus, UniProt P14842); assay: Binding affinity towards rat 5-hydroxytryptamine 2A receptor was evaluated using [3H]- ketanserin as radioligand
# [2] = biological target: T1, 5-hydroxytryptamine receptor 1A (Rattus norvegicus, UniProt P19327); assay: Binding affinity towards rat 5-hydroxytryptamine 1A receptor was evaluated using [3H]8-OH-DPAT as radioligand
# T1 sequence (P19327 whole entry): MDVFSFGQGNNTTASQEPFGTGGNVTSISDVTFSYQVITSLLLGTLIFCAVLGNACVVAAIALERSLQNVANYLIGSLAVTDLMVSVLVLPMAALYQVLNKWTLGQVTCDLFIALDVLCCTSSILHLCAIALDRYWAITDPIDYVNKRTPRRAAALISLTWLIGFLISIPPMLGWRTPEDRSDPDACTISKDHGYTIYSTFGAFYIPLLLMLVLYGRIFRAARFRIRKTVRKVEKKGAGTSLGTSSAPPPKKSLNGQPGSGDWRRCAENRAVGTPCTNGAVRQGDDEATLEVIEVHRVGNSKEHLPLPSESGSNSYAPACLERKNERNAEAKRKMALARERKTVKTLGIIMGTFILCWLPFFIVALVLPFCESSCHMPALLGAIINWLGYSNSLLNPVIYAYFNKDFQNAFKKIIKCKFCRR
# [3] = biological target: T2, Adrenergic receptor alpha-2 (Rattus norvegicus, UniProt P22086+P19328+P22909); assay: Binding affinity towards rat Alpha-2 adrenergic receptor was evaluated using [3H]- yohimbine as radioligand; assay type: protein assay
# T2 sequence (P22086 whole entry): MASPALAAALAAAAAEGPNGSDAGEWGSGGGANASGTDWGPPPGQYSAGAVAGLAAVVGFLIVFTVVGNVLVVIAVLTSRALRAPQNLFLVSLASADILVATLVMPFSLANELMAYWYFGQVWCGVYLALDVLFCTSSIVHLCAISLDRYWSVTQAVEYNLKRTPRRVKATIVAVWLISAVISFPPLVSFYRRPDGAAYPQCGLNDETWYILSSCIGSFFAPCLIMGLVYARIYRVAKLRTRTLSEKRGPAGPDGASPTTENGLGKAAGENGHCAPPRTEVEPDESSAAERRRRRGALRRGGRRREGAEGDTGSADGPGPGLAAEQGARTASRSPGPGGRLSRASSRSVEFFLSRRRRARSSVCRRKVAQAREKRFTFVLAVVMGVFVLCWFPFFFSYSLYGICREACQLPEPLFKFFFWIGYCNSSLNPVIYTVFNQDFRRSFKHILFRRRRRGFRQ
# T2 sequence (P19328 whole entry): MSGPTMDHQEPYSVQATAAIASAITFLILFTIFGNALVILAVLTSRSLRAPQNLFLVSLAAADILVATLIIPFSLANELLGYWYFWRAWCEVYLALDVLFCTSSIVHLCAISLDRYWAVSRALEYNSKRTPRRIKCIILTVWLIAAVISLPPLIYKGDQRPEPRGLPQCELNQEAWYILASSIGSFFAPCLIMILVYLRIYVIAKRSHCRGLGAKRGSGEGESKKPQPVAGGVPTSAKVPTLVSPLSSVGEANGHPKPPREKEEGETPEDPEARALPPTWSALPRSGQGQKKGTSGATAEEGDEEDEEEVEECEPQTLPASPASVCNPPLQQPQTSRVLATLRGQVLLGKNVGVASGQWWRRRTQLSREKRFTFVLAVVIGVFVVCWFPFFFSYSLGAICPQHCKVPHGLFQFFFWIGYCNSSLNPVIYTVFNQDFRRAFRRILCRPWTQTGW
# T2 sequence (P22909 whole entry): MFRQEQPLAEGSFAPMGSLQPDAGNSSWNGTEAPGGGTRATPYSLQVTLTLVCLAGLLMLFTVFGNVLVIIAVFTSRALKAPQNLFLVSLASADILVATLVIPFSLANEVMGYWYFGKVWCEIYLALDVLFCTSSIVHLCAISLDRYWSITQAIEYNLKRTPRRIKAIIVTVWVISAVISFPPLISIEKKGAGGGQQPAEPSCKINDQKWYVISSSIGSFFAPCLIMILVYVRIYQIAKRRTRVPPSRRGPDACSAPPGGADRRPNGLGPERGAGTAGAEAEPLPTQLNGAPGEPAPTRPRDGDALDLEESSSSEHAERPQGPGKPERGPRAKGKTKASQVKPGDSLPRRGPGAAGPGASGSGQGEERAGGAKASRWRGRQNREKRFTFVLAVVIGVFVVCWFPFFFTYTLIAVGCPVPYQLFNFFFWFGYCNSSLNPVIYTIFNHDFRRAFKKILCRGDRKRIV
# [4] = biological target: T3, Adrenergic receptor alpha-1 (Rattus norvegicus, UniProt P15823+P23944+P43140); assay: Binding affinity towards rat Alpha-1 adrenergic receptor was evaluated using [3H]- prazosin as radioligand; assay type: protein assay
# T3 sequence (P15823 whole entry): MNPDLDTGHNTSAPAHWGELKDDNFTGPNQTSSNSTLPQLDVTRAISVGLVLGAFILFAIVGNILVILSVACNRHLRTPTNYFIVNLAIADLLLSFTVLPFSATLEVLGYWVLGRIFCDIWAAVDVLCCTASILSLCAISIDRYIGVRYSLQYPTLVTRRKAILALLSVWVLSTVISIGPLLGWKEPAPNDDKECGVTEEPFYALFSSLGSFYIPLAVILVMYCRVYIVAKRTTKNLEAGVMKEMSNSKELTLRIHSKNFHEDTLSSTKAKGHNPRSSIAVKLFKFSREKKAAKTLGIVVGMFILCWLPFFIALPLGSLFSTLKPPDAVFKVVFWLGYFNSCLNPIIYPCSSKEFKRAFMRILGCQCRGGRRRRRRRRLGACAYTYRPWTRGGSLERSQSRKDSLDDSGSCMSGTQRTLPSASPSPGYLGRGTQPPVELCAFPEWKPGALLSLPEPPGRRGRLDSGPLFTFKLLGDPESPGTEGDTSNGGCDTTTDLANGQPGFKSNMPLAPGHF
# T3 sequence (P23944 whole entry): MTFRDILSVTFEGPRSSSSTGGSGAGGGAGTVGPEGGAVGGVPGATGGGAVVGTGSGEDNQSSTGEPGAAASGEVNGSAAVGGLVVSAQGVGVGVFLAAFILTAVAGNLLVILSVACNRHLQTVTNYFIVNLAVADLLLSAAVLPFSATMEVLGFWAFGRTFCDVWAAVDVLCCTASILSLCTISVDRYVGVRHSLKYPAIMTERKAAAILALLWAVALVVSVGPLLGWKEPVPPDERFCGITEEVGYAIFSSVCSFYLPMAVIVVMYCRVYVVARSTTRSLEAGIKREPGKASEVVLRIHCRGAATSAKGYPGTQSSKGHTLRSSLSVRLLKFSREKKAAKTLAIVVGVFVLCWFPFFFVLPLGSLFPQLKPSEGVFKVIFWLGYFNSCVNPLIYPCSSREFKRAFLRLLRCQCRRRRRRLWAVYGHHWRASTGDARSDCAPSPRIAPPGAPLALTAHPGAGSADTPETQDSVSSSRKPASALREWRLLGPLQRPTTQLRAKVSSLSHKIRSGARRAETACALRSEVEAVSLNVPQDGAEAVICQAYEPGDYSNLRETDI
# T3 sequence (P43140 whole entry): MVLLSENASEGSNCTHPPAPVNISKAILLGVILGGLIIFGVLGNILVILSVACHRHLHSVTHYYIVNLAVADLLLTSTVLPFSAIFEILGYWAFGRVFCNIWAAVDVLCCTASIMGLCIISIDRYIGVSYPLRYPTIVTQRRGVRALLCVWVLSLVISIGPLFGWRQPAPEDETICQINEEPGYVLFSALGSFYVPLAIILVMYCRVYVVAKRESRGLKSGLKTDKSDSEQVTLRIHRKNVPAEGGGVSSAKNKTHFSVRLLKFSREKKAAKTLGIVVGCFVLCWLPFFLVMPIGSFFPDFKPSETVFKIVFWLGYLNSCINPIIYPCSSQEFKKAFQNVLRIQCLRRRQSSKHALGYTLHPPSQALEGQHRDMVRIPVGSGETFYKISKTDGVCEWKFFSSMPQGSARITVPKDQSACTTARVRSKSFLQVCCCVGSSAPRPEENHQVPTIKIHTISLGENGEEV
# D(2) dopamine receptor = D(2) dopamine receptor (Rattus norvegicus, UniProt P61169); assay: Binding affinity towards rat Dopamine receptor D2 was evaluated using [3H]- spiroperidol as radioligand
# Sequence of D(2) dopamine receptor (P61169 whole entry): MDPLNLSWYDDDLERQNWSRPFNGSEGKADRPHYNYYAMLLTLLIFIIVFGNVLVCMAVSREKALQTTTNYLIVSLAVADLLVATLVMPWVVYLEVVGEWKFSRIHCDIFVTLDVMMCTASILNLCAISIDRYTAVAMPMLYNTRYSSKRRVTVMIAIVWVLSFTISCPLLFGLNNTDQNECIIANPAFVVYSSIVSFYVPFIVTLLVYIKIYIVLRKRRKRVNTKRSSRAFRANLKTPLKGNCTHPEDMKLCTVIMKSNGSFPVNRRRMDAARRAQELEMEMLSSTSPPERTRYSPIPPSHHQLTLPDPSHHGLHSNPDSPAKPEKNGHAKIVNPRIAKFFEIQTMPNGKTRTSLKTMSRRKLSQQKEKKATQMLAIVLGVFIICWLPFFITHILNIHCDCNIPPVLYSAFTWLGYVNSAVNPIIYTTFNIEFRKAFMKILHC
# [5] = Selectivity ratio of IC50 values of 5-hydroxytryptamine 1A receptor vs dopamine receptor D2
# [6] = Selectivity ratio of IC50 values of 5-hydroxytryptamine 1A receptor vs Alpha-2 adrenergic receptor
# [7] = Selectivity ratio of IC50 values of 5-hydroxytryptamine 1A receptor vs 5-hydroxytryptamine 2 receptor
# Sequence of 5-hydroxytryptamine receptor 2A (P14842 whole entry): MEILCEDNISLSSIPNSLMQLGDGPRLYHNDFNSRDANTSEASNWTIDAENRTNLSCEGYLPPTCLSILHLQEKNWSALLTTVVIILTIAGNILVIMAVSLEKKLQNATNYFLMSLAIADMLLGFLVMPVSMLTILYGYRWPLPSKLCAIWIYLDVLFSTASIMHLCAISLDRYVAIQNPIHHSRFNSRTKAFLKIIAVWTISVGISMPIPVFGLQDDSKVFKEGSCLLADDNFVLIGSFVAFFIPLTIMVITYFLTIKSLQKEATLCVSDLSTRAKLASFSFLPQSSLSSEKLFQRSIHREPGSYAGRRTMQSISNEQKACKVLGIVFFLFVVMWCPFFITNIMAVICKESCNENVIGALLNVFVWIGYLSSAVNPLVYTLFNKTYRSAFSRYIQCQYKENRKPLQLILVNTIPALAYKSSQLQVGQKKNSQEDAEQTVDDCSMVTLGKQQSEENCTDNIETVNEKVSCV
structure (smiles),measurement,setting,value
COc1ccccc1N1CCN(CCCC2CCCc3c(OC)cccc32)CC1 (centres undefined),IC50,[1],0.33 µM
COc1ccc2c(c1)CCC(CCN1CCN(c3ccccc3)CC1)=C2,IC50,[2],0.0082 µM
same,IC50,[1],0.056 µM
same,IC50,[3],0.13 µM
same,IC50,[4],0.088 µM
same,IC50,D(2) dopamine receptor,0.17 µM
same,Selectivity ratio,[5],24
same,Selectivity ratio,[6],16
same,Selectivity ratio,[7],7
COc1cccc2c1CCC(CCN1CCN(c3ccccc3)CC1)=C2,IC50,[2],0.191 µM
same,IC50,[1],0.241 µM
same,IC50,[3],0.357 µM
same,IC50,[4],0.194 µM
same,IC50,D(2) dopamine receptor,0.276 µM
same,Selectivity ratio,[5],1
same,Selectivity ratio,[6],2
same,Selectivity ratio,[7],1
COc1cccc2c1CCC=C2CCCN1CCN(c2ccccc2)CC1,IC50,[1],0.204 µM
same,Selectivity ratio,[5],17
same,Selectivity ratio,[7],11
COc1cccc2c1CCC(CCN1CCN(c3ccccc3)CC1)C2 (centres undefined),IC50,[2],0.054 µM
same,IC50,[1],0.16 µM
same,IC50,[3],0.6 µM
same,IC50,[4],0.1 µM
same,IC50,D(2) dopamine receptor,0.13 µM
same,Selectivity ratio,[5],2
same,Selectivity ratio,[6],11
same,Selectivity ratio,[7],3
COc1ccc2c(c1)C(CCCN1CCN(c3ccccc3)CC1)=CCC2,IC50,[1],0.119 µM
same,IC50,[4],0.173 µM
same,IC50,D(2) dopamine receptor,0.157 µM
same,Selectivity ratio,[5],1
same,Selectivity ratio,[7],0.8
COc1ccc2c(c1)CCCC2CCCN1CCN(c2ccccc2)CC1 (centres undefined),IC50,[1],0.16 µM
same,IC50,[3],0.17 µM
same,IC50,[4],0.045 µM
same,IC50,D(2) dopamine receptor,0.091 µM
same,Selectivity ratio,[5],17
same,Selectivity ratio,[6],31
same,Selectivity ratio,[7],30
COc1ccc2c(c1)CC(CCN1CCN(c3ccccc3)CC1)CC2 (centres undefined),IC50,[2],0.0036 µM
same,IC50,[1],0.23 µM
same,IC50,[3],0.26 µM
same,IC50,[4],0.08 µM
same,IC50,D(2) dopamine receptor,0.1 µM
same,Selectivity ratio,[5],28
same,Selectivity ratio,[6],72
same,Selectivity ratio,[7],64
CCCN(CCC)C1CCc2cccc(O)c2C1 (centres undefined) [8-OH-DPAT],IC50,[1],> 10 µM
COc1cccc2c1CCC/C2=C\CCN1CCN(c2ccccc2)CC1,IC50,[1],0.58 µM
same,IC50,[3],0.29 µM
same,IC50,[4],0.12 µM
same,IC50,D(2) dopamine receptor,0.1 µM
same,Selectivity ratio,[5],5
same,Selectivity ratio,[6],15
same,Selectivity ratio,[7],31
COc1cccc2c1C(CCCN1CCN(c3ccccc3)CC1)CCC2 (centres undefined),IC50,[2],0.056 µM
same,IC50,[1],0.61 µM
same,IC50,[3],0.14 µM
same,IC50,[4],0.13 µM
same,IC50,D(2) dopamine receptor,0.062 µM
same,Selectivity ratio,[5],1
same,Selectivity ratio,[6],3
same,Selectivity ratio,[7],11
COc1cccc2c1CCCC2CCCN1CCN(c2ccccn2)CC1 (centres undefined),IC50,[1],0.25 µM
same,Selectivity ratio,[5],259
same,Selectivity ratio,[6],89
same,Selectivity ratio,[7],462
COc1ccc2c(c1)CCC(CCN1CCN(c3ccccc3)CC1)C2 (centres undefined),IC50,[2],0.0037 µM
same,IC50,[1],0.086 µM
same,IC50,[3],0.16 µM
same,IC50,[4],0.079 µM
same,IC50,D(2) dopamine receptor,0.12 µM
same,Selectivity ratio,[5],32
same,Selectivity ratio,[6],43
same,Selectivity ratio,[7],23
COc1ccc2c(c1)C=C(CCN1CCN(c3ccccc3)CC1)CC2,IC50,[2],0.0073 µM
same,IC50,[1],0.106 µM
same,IC50,[3],0.122 µM
same,IC50,[4],0.058 µM
same,IC50,D(2) dopamine receptor,0.136 µM
same,Selectivity ratio,[5],22
same,Selectivity ratio,[6],18
same,Selectivity ratio,[7],15
COc1cccc2c1CCCC2CCCCN1CCN(c2ccccc2)CC1 (centres undefined),IC50,[2],0.015 µM
same,IC50,[1],0.42 µM
same,IC50,[3],0.77 µM
same,IC50,[4],0.13 µM
same,IC50,D(2) dopamine receptor,0.11 µM
same,Selectivity ratio,[5],7
same,Selectivity ratio,[6],51
same,Selectivity ratio,[7],28
COc1cccc2c1CCCC2CCCN1CCN(c2ccccc2)CC1 (centres undefined),IC50,[1],0.23 µM
same,Selectivity ratio,[5],220
same,Selectivity ratio,[6],520
same,Selectivity ratio,[7],460
COc1cccc2c1CCCC2CCN1CCN(c2ccccc2)CC1 (centres undefined),IC50,[2],0.14 µM
same,IC50,[1],0.012 µM
same,IC50,[3],0.022 µM
same,IC50,[4],0.084 µM
same,IC50,D(2) dopamine receptor,0.21 µM
same,Selectivity ratio,[5],2
same,Selectivity ratio,[6],0.2
same,Selectivity ratio,[7],0.1

# Reference: ChEMBL document CHEMBL1129592 (J Med Chem, 1996)
